Values quoted from earlier work as cited in patent publication US20050282937A1, “Electrochemical compatibilizer and hydrophobic wetting agent for fiber reinforced vinyl esters and related thermosets” (priority 2004, published 2005).
Converted amounts (≈) assume the structure as drawn. Read-outs that look alike come from different tables or passages of the source.

Columns and labels:
Actinomyces israeli = settings: Oral Bacteria, laboratory strain NCTC8047
Actinomyces naeslundi = settings: Oral Bacteria
[1] = system: Actinomyces odontolyticus
Streptococcus mitor = settings: Oral Bacteria
Streptococcus mutans [2] = settings: Oral Bacteria, laboratory strain 6715
Steptococcus sobrinus = settings: Oral Bacteria, laboratory strain OMZ176
Steptococcus sanguis = settings: Oral Bacteria, laboratory strain 34
Porphyromonas gingivalis = settings: Oral Bacteria, laboratory strain OMZ309
[3] = system: Actinobacillus actinomycesemcomitans; settings: Oral Bacteria, laboratory strain Y4
Bacteroides gingivalis = settings: Oral Bacteria, laboratory strain 381
Bacteroides intermedius = settings: Oral Bacteria
C. ochracea = settings: Oral Bacteria, laboratory strain NCTC11654
[4] = system: Peptococcus asacchrolyticus; settings: Oral Bacteria, laboratory strain NCTC
Lactobacilli = settings: Oral Bacteria, strain not given
[5] = system: Actinomyces actinomycetemcomitans; settings: Fresh isolate from human plaque, Colgate-Palmolive data
Capnocytophaga spp = settings: Fresh isolate from human plaque, Colgate-Palmolive data
P. anaerobius = settings: Fresh isolate from human plaque, Colgate-Palmolive data
[6] = system: Peptostreptococcus micros; settings: Fresh isolate from human plaque, Colgate-Palmolive data, strain 1422
P. acnes = settings: Fresh isolate from human plaque, Colgate-Palmolive data, strain 1305
S. milleri = settings: Fresh isolate from human plaque, Colgate-Palmolive data
S. mitior = settings: Fresh isolate from human plaque, Colgate-Palmolive data
W. recta = settings: Fresh isolate from human plaque, Colgate-Palmolive data, strain not given
Staphlococcus aureus = settings: Bacteria associated with polymeric medical devices
[7] = system: Staphlococcus epidermidis; settings: Bacteria associated with polymeric medical devices, strain ATCC12228
Staphlococcus hyicus = settings: Bacteria associated with polymeric medical devices, strain ATCC27844
Staphlococcus hominus = settings: Bacteria associated with polymeric medical devices, strain ATCC27844
[8] = system: Staphlococcus saprohyticus; settings: Bacteria associated with polymeric medical devices, strain NCTC7292
Escherichia coli [9] = settings: Bacteria associated with polymeric medical devices
[10] = system: Corynebacterium (Propionibacterium) acnes; settings: Bacteria associated with polymeric medical devices, strain ATCC6919
Pseudomonas aeruginosa = settings: Bacteria associated with polymeric medical devices
Listeria monocytogenes = settings: Bacteria associated with polymeric medical devices, strain ATCC15313
Salmonella enteritidis = settings: Bacteria associated with polymeric medical devices, strain A
Candida albicans = settings: Yeast
[11] = over a 24-hour period, thermoset dental compound containing 1.0 wt % additive
Laboratory rats = settings: ingestion
Streptococcus mutans [12] = settings: dental composite, 1.0 wt % concentration, twenty four-hour period
Staphylococcus aureus = settings: catheters of ethylvinyl acetate and polypropylene, up to 2.0 wt %, rabbits
[13] = system: Staphylococcus epidermidis; settings: catheters of ethylvinyl acetate and polypropylene, up to 2.0 wt %, rabbits
Escherichia coli [14] = settings: catheters of ethylvinyl acetate and polypropylene, up to 2.0 wt %, rabbits
[15] = catheters of ethylvinyl acetate and polypropylene, up to 2.0 wt %

Oc1cc(Cl)ccc1Oc1ccc(Cl)cc1Cl [Triclosan]
Minimum inhibitory Triclosan concentration (Actinomyces viscosus; Fresh isolate from human plaque, Colgate-Palmolive data, strain 1218): 0.8 µg/mL
Minimum inhibitory Triclosan concentration (Actinomyces viscosus; Oral Bacteria, laboratory strain NCTC10951): 0.8 µg/mL
Minimum inhibitory Triclosan concentration (Actinomyces viscosus; Oral Bacteria, laboratory strain T14V): 5.0 µg/mL
Minimum inhibitory Triclosan concentration (Actinomyces israeli): 1.0 µg/mL
Minimum inhibitory Triclosan concentration (Actinomyces naeslundi; laboratory strain 12104): 1.0 µg/mL
Minimum inhibitory Triclosan concentration (Actinomyces naeslundi; laboratory strain A): 1.0 µg/mL
Minimum inhibitory Triclosan concentration ([1]; Fresh isolate from human plaque, Colgate-Palmolive data, strain 1041): 0.8 µg/mL
Minimum inhibitory Triclosan concentration ([1]; Fresh isolate from human plaque, Colgate-Palmolive data, strain 1431): 0.8 µg/mL
Minimum inhibitory Triclosan concentration ([1]; Oral Bacteria, laboratory strain NCTC9935): 0.8 µg/mL
Minimum inhibitory Triclosan concentration (Streptococcus mitor; laboratory strain NCTC7864): 0.8 µg/mL
Minimum inhibitory Triclosan concentration (Streptococcus mitor; laboratory strain NCTC10712): 1.1 µg/mL
Minimum inhibitory Triclosan concentration (Streptococcus mutans [2]): 5.0 µg/mL
Minimum inhibitory Triclosan concentration (Steptococcus sobrinus): 11.0 µg/mL
Minimum inhibitory Triclosan concentration (Steptococcus sanguis): 2.0 µg/mL
Minimum inhibitory Triclosan concentration (Porphyromonas gingivalis): 2.0 µg/mL
Minimum inhibitory Triclosan concentration [3]: 5.0 µg/mL
Minimum inhibitory Triclosan concentration (Bacteroides gingivalis): 2.5 µg/mL
Minimum inhibitory Triclosan concentration (Bacteroides intermedius; laboratory strain 581): 2.5 µg/mL
Minimum inhibitory Triclosan concentration (Bacteroides intermedius; laboratory strain NCTC9336): 0.4 µg/mL
Minimum inhibitory Triclosan concentration (Fusobacterium nucleatum; Fresh isolate from human plaque, Colgate-Palmolive data, strain 1446): 0.8 µg/mL
Minimum inhibitory Triclosan concentration (Fusobacterium nucleatum; Oral Bacteria, laboratory strain NCTC10562): 1.2 µg/mL
Minimum inhibitory Triclosan concentration (Veillonella parvula; Fresh isolate from human plaque, Colgate-Palmolive data, strain 1167): 6.2 µg/mL
Minimum inhibitory Triclosan concentration (Veillonella parvula; Fresh isolate from human plaque, Colgate-Palmolive data, strain 1459): 2.3 µg/mL
Minimum inhibitory Triclosan concentration (Veillonella parvula; Oral Bacteria, laboratory strain NCTC): 5.4 µg/mL
Minimum inhibitory Triclosan concentration (C. ochracea): <0.4 µg/mL
Minimum inhibitory Triclosan concentration [4]: <0.6 µg/mL
Minimum inhibitory Triclosan concentration (Lactobacilli): 33.0 µg/mL
Minimum inhibitory Triclosan concentration ([5]; strain 1426): <0.3 µg/mL
Minimum inhibitory Triclosan concentration ([5]; strain 1483): <0.3 µg/mL
Minimum inhibitory Triclosan concentration (Capnocytophaga spp; strain 287): 0.8 µg/mL
Minimum inhibitory Triclosan concentration (Capnocytophaga spp; strain 290): 2.3 µg/mL
Minimum inhibitory Triclosan concentration (Capnocytophaga spp; strain 310): 0.8 µg/mL
Minimum inhibitory Triclosan concentration (P. anaerobius; strain 580): 0.6 µg/mL
Minimum inhibitory Triclosan concentration (P. anaerobius; strain 1198): 2.3 µg/mL
Minimum inhibitory Triclosan concentration [6]: 3.1 µg/mL
Minimum inhibitory Triclosan concentration (P. acnes): 2.3 µg/mL
Minimum inhibitory Triclosan concentration (S. milleri; strain 1339): 2.3 µg/mL
Minimum inhibitory Triclosan concentration (S. milleri; strain 1391): 2.3 µg/mL
Minimum inhibitory Triclosan concentration (S. mitior; strain 1384): 2.3 µg/mL
Minimum inhibitory Triclosan concentration (S. mitior; strain 1387): 2.3 µg/mL
Minimum inhibitory Triclosan concentration (W. recta): 0.8 µg/mL
Minimum inhibitory Triclosan concentration (Staphlococcus aureus; strain ATCC9144): 0.05 µg/mL
Minimum inhibitory Triclosan concentration (Staphlococcus aureus; strain ATCC29213): <0.125 µg/mL
Minimum inhibitory Triclosan concentration (Staphlococcus aureus; strain NCTC11150): 0.02 µg/mL
Minimum inhibitory Triclosan concentration (Staphlococcus aureus; strain NCTC12232): 0.01 µg/mL
Minimum inhibitory Triclosan concentration [7]: <0.125 µg/mL
Minimum inhibitory Triclosan concentration (Staphlococcus hyicus): 0.03 µg/mL
Minimum inhibitory Triclosan concentration (Staphlococcus hominus): 1.0 µg/mL
Minimum inhibitory Triclosan concentration [8]: 0.1 µg/mL
Minimum inhibitory Triclosan concentration (Escherichia coli [9]; strain ATCC9661): 0.3 µg/mL
Minimum inhibitory Triclosan concentration (Escherichia coli [9]; strain ATCC43888): 0.1 µg/mL
Minimum inhibitory Triclosan concentration (Escherichia coli [9]; strain NCTC8196): 0.02 µg/mL
Minimum inhibitory Triclosan concentration (Escherichia coli [9]; strain NCTC11186): 0.5 µg/mL
Minimum inhibitory Triclosan concentration [10]: 3.0 µg/mL
Minimum inhibitory Triclosan concentration (Pseudomonas aeruginosa; strain ATCC12055): >1000 µg/mL
Minimum inhibitory Triclosan concentration (Pseudomonas aeruginosa; strain NCTC8060): >1000 µg/mL
Minimum inhibitory Triclosan concentration (Listeria monocytogenes): 1.0 µg/mL
Minimum inhibitory Triclosan concentration (Salmonella enteritidis): 0.1 µg/mL
Minimum inhibitory Triclosan concentration (Candida albicans; strain A): 10.0 µg/mL
Minimum inhibitory Triclosan concentration (Candida albicans; strain ATCC10259): 3.0 µg/mL
solubility (sparingly soluble) (at 20 C°): 0.001 grams per liter
Triclosan water solubility (at 37 C. °): Triclosan water solubility approximately 30 ug/ml at 37 C. °
water solubility (at 50 C°): 40 µg/mL (≈ 138 µM)
Triclosan release in water [11]: 0.02 ppm
amount ingested without ill effect (Laboratory rats): greater than 5000 mg/Kg
Streptococcus mutans formation and adhesion (Streptococcus mutans [12]): reduced Streptococcus mutans formation and adhesion
effectiveness against Staphylococcus aureus (Staphylococcus aureus): effectiveness
effectiveness against Staphylococcus epidermidis [13]: effectiveness
effectiveness against Escherichia coli (Escherichia coli [14]): effectiveness
leaching [15]: high leaching
